Reference: PubChem BioAssay (NCI)
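Growth conditions: 96-well plates. Treatment: test compound, 48 hours, 5 concentrations. Analysis: linear interpolation between bracketing concentrations; unreached endpoints set to highest concentration. The concentration for full growth arrest is given as TGI.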

Experiments:
Assay in all cases: NCI anticancer screen, dose series, 48 h
NCI-H522 lung = test system: NCI-H522 lung
SK-OV-3 ovarian = test system: SK-OV-3 ovarian
CAKI-1 renal = test system: CAKI-1 renal
SN12C renal = test system: SN12C renal
KM12 colon = test system: KM12 colon
HL-60(TB) leukemia = test system: HL-60(TB) leukemia
SNB-19 CNS = test system: SNB-19 CNS
RXF 393 renal = test system: RXF 393 renal
CCRF-CEM leukemia = test system: CCRF-CEM leukemia
UACC-62 melanoma = test system: UACC-62 melanoma
OVCAR-5 ovarian = test system: OVCAR-5 ovarian
SW-620 colon = test system: SW-620 colon
OVCAR-8 ovarian = test system: OVCAR-8 ovarian
SNB-75 CNS = test system: SNB-75 CNS
K-562 leukemia = test system: K-562 leukemia
NCI-H23 lung = test system: NCI-H23 lung
RPMI-8226 leukemia = test system: RPMI-8226 leukemia
ACHN renal = test system: ACHN renal
U251 CNS = test system: U251 CNS
IGROV1 ovarian = test system: IGROV1 ovarian
SNB-78 CNS = test system: SNB-78 CNS
SK-MEL-5 melanoma = test system: SK-MEL-5 melanoma
A498 renal = test system: A498 renal
M14 melanoma = test system: M14 melanoma
SK-MEL-2 melanoma = test system: SK-MEL-2 melanoma
NCI-H460 lung = test system: NCI-H460 lung
OVCAR-3 ovarian = test system: OVCAR-3 ovarian
SF-539 CNS = test system: SF-539 CNS
TK-10 renal = test system: TK-10 renal
UACC-257 melanoma = test system: UACC-257 melanoma
MALME-3M melanoma = test system: MALME-3M melanoma
DMS 114 small cell lung = test system: DMS 114 small cell lung
EKVX NSCLC = test system: EKVX NSCLC
HOP-92 NSCLC = test system: HOP-92 NSCLC
HOP-62 NSCLC = test system: HOP-62 NSCLC
SF-268 CNS = test system: SF-268 CNS
HT29 colon = test system: HT29 colon
SR leukemia = test system: SR leukemia
DMS 273 small cell lung = test system: DMS 273 small cell lung
LOX IMVI melanoma = test system: LOX IMVI melanoma
M19-MEL melanoma = test system: M19-MEL melanoma
MOLT-4 leukemia = test system: MOLT-4 leukemia
KM20L2 colon = test system: KM20L2 colon
SK-MEL-28 melanoma = test system: SK-MEL-28 melanoma
A549 NSCLC = test system: A549 NSCLC
COLO 205 colon = test system: COLO 205 colon
HCT-116 colon = test system: HCT-116 colon
SF-295 CNS = test system: SF-295 CNS
786-0 renal = test system: 786-0 renal
NCI-H226 lung = test system: NCI-H226 lung
OVCAR-4 ovarian = test system: OVCAR-4 ovarian
HCT-15 colon = test system: HCT-15 colon
HCC-2998 colon = test system: HCC-2998 colon
UO-31 renal = test system: UO-31 renal
DU-145 prostate = test system: DU-145 prostate
MDA-MB-231 breast = test system: MDA-MB-231 breast
HS 578T breast = test system: HS 578T breast
MCF7 breast = test system: MCF7 breast
T-47D breast = test system: T-47D breast
BT-549 breast = test system: BT-549 breast
PC-3 prostate = test system: PC-3 prostate
NCI/ADR-RES ovarian = test system: NCI/ADR-RES ovarian
MDA-N = test system: MDA-N
MDA-MB-435 = test system: MDA-MB-435

Measured: TGI

ClC1CCC2OOC1O2 (stereo not drawn)
> 100 µM: NCI-H522 lung | SK-OV-3 ovarian | CAKI-1 renal | SN12C renal | KM12 colon | HL-60(TB) leukemia | SNB-19 CNS | RXF 393 renal | CCRF-CEM leukemia | UACC-62 melanoma | OVCAR-5 ovarian | SW-620 colon | OVCAR-8 ovarian | SNB-75 CNS | K-562 leukemia | NCI-H23 lung | RPMI-8226 leukemia | ACHN renal | U251 CNS | IGROV1 ovarian | SNB-78 CNS | SK-MEL-5 melanoma | A498 renal | M14 melanoma | SK-MEL-2 melanoma | NCI-H460 lung | OVCAR-3 ovarian | SF-539 CNS | TK-10 renal | UACC-257 melanoma | MALME-3M melanoma | DMS 114 small cell lung | EKVX NSCLC | HOP-92 NSCLC | HOP-62 NSCLC | SF-268 CNS | HT29 colon | SR leukemia | DMS 273 small cell lung | LOX IMVI melanoma | M19-MEL melanoma | MOLT-4 leukemia | KM20L2 colon | SK-MEL-28 melanoma | A549 NSCLC | COLO 205 colon | HCT-116 colon | SF-295 CNS | 786-0 renal | NCI-H226 lung | OVCAR-4 ovarian | HCT-15 colon | HCC-2998 colon | UO-31 renal

COc1ccc(N=c2ssc(C(=S)Nc3ccc(OC)cc3)c2S)cc1
84.6 µM: HCC-2998 colon
> 100 µM: NCI-H522 lung | SK-OV-3 ovarian | DU-145 prostate | CAKI-1 renal | SN12C renal | KM12 colon | MDA-MB-231 breast | HL-60(TB) leukemia | SNB-19 CNS | RXF 393 renal | CCRF-CEM leukemia | UACC-62 melanoma | OVCAR-5 ovarian | SW-620 colon | OVCAR-8 ovarian | HS 578T breast | SNB-75 CNS | MCF7 breast | K-562 leukemia | NCI-H23 lung | RPMI-8226 leukemia | ACHN renal | U251 CNS | IGROV1 ovarian | SK-MEL-5 melanoma | A498 renal | M14 melanoma | SK-MEL-2 melanoma | NCI-H460 lung | T-47D breast | OVCAR-3 ovarian | SF-539 CNS | TK-10 renal | UACC-257 melanoma | MALME-3M melanoma | BT-549 breast | PC-3 prostate | NCI/ADR-RES ovarian | MDA-N | EKVX NSCLC | HOP-92 NSCLC | HOP-62 NSCLC | SF-268 CNS | HT29 colon | SR leukemia | LOX IMVI melanoma | MOLT-4 leukemia | SK-MEL-28 melanoma | A549 NSCLC | COLO 205 colon | HCT-116 colon | SF-295 CNS | MDA-MB-435 | 786-0 renal | NCI-H226 lung | OVCAR-4 ovarian | HCT-15 colon | UO-31 renal
